Data on five molecules can be found in PubChem BioAssay AID2060332 (Molecular Pharmacology Branch, DTP, NCI, 2025).

Several values for one entry are separate records, joined by “and”; a condition that tells them apart may be missing. Identical values can stand only once.

This assay has as its system LG0567-F671-PDC multi-cell spheroid viability. The assay is described as follows: Anticancer human tumor LG0567-F671-PDC patient-derived lung adenocarcinoma cell line growth inhibition [IpAb]. The note with it: for viability, T/C: stronger effect = lower value. A digest of the protocol:
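Combinations with ipatasertib or abemaciclib were tested on tumour spheroids holding HUVEC (25%) and MSC (15%) alongside 60% malignant cells. Top concentration was at or near clinical Cmax (10 microM if undefined), descending in half-log steps.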

The mark [1] stands for this setting: curve of first compound, second compound 0.1 µM.
Setting [2] is: curve of first compound, second compound 0.316 µM.
Where [3] appears, read: curve of first compound, second compound 1 µM.
The mark [4] stands for this setting: second compound 0.1 µM, first compound 0.0316 µM.
Setting [5] is: second compound 0.1 µM, first compound 0.1 µM.
Setting [6] is: second compound 0.1 µM, first compound 0.316 µM.
Where [7] appears, read: second compound 0.1 µM, first compound 1 µM.
Where [8] appears, read: second compound 0.1 µM, first compound 3.16 µM.
The mark [9] stands for this setting: second compound 0.1 µM, first compound 10 µM.
Where [10] appears, read: second compound 0.316 µM, first compound 0.0316 µM.
[11] abbreviates: second compound 0.316 µM, first compound 0.1 µM.
Where [12] appears, read: second compound 0.316 µM, first compound 0.316 µM.
[13] abbreviates: second compound 0.316 µM, first compound 1 µM.
The mark [14] stands for this setting: second compound 0.316 µM, first compound 3.16 µM.
Setting [15] is: second compound 0.316 µM, first compound 10 µM.
The mark [16] stands for this setting: second compound 1 µM, first compound 0.0316 µM.
[17] abbreviates: second compound 1 µM, first compound 0.1 µM.
Setting [18] is: second compound 1 µM, first compound 0.316 µM.
The mark [19] stands for this setting: second compound 1 µM, first compound 1 µM.
Where [20] appears, read: second compound 1 µM, first compound 3.16 µM.
Setting [21] is: second compound 1 µM, first compound 10 µM.
Where [22] appears, read: curve of first compound, second compound 0.01 µM.
The mark [23] stands for this setting: curve of first compound, second compound 0.0316 µM.
Where [24] appears, read: second compound 0.01 µM, first compound 0.0316 µM.
Setting [25] is: second compound 0.01 µM, first compound 0.1 µM.
Setting [26] is: second compound 0.01 µM, first compound 0.316 µM.
Setting [27] is: second compound 0.01 µM, first compound 1 µM.
Where [28] appears, read: second compound 0.01 µM, first compound 3.16 µM.
The mark [29] stands for this setting: second compound 0.01 µM, first compound 10 µM.
Setting [30] is: second compound 0.0316 µM, first compound 0.0316 µM.
Setting [31] is: second compound 0.0316 µM, first compound 0.1 µM.
Where [32] appears, read: second compound 0.0316 µM, first compound 0.316 µM.
Setting [33] is: second compound 0.0316 µM, first compound 1 µM.
Setting [34] is: second compound 0.0316 µM, first compound 3.16 µM.
[35] abbreviates: second compound 0.0316 µM, first compound 10 µM.
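Further: viability read after 7 days of drug exposure.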
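Wherever viability, T/C is given: 100% = DMSO vehicle control luminescence.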

Usually IC50 stands for the point on the concentration scale where inhibition reaches its midpoint. As usually defined, the viability, T/C is the result in the treated group divided by that in the control group, in per cent. With `Cn1nccc1Nc1nccc(-c2ccn(C(CO)c3ccc(Cl)c(F)c3)c(=O)c2)n1` (stereo not drawn) + CC(C)NCC(C(=O)N1CCN(c2ncnc3c2C(C)CC3O)CC1)c1ccc(Cl)cc1, the IC50 came to 128 nM under setting [1]; 79.9 nM under setting [2]; 152 nM under setting [3]; 160 nM (curve of first compound, second compound 3.16 µM); 192 nM (curve of first compound, second compound 10 µM). Moreover, the viability, T/C under setting [4] was 60.9%; the viability, T/C under setting [5] was 51.7%; the viability, T/C under setting [6] was 44.4%; the viability, T/C under setting [7] was 34.2%; the viability, T/C under setting [8] is 29.1%; the viability, T/C under setting [9] is 23.9%. Also, the viability, T/C is, setting by setting: under setting [10], 62.1%; under setting [11], 45.6%; under setting [12], 36.7%; under setting [13], 32.7%; under setting [14], 26%; under setting [15], 21.3%. Besides, the viability, T/C under setting [16] is 62.4%; the viability, T/C under setting [17] is 52.9%; the viability, T/C under setting [18] was 43.8%; the viability, T/C under setting [19] is 25.9%; the viability, T/C under setting [20] is 20.2%; the viability, T/C under setting [21] is 15.9%. Further, the viability, T/C was 67.2% (second compound 3.16 µM, first compound 0.0316 µM); 58% (second compound 3.16 µM, first compound 0.1 µM); 38.6% (second compound 3.16 µM, first compound 0.316 µM); 31.7% (second compound 3.16 µM, first compound 1 µM); 19.3% (second compound 3.16 µM, first compound 3.16 µM); 9.79% (second compound 3.16 µM, first compound 10 µM). The viability, T/C is, setting by setting: (second compound 10 µM, first compound 0.0316 µM) 60.1%; (second compound 10 µM, first compound 0.1 µM) 57.4%; (second compound 10 µM, first compound 0.316 µM) 44.8%; (second compound 10 µM, first compound 1 µM) 27.2%; (second compound 10 µM, first compound 3.16 µM) 16.7%; (second compound 10 µM, first compound 10 µM) 9.92%.

Take `Cn1nccc1Nc1nccc(-c2ccn(C(CO)c3ccc(Cl)c(F)c3)c(=O)c2)n1` (stereo not drawn) + CCN1CCN(Cc2ccc(Nc3ncc(F)c(-c4cc(F)c5nc(C)n(C(C)C)c5c4)n3)nc2)CC1: the IC50 was 121 nM under setting [22]; 131 nM under setting [23]; 87.3 nM under setting [1]; less than 31.6 nM under setting [2]; less than 31.6 nM under setting [3]. Also, the viability, T/C by setting is: under setting [24], 77.9%; under setting [25], 47.2%; under setting [26], 46.7%; under setting [27], 31.2%; under setting [28], 26.9%; under setting [29], 29.6%. For the same molecule, the viability, T/C reads like this: under setting [30], 60.9%; under setting [31], 48.9%; under setting [32], 45.9%; under setting [33], 28%; under setting [34], 26.2%; under setting [35], 24.9%. Also, the viability, T/C by setting is: under setting [4], 57.1%; under setting [5], 48.3%; under setting [6], 40.5%; under setting [7], 28.1%; under setting [8], 31.2%; under setting [9], 24.9%. Further, the viability, T/C was 49.7% under setting [10]; 46.4% under setting [11]; 37.1% under setting [12]; 34% under setting [13]; 24.6% under setting [14]; 28.5% under setting [15]. Besides, the viability, T/C under setting [16] was 42.8%; the viability, T/C under setting [17] is 50%; the viability, T/C under setting [18] was 40.3%; the viability, T/C under setting [19] is 29.3%; the viability, T/C under setting [20] was 25.5%; the viability, T/C under setting [21] is 23.1%.

`C=CCn1c(=O)c2cnc(Nc3ccc(N4CCN(C)CC4)cc3)nc2n1-c1cccc(C(C)(C)O)n1` + CCN1CCN(Cc2ccc(Nc3ncc(F)c(-c4cc(F)c5nc(C)n(C(C)C)c5c4)n3)nc2)CC1: the IC50 turned out to be 800 nM under setting [22]; 310 nM under setting [23]; 518 nM under setting [1]; 240 nM under setting [2]; 359 nM under setting [3]. For the same molecule, the viability, T/C reads like this: under setting [24], 95%; under setting [25], 68.1%; under setting [26], 66.8%; under setting [27], 48.4%; under setting [28], 31.9%; under setting [29], 32%. Further, the viability, T/C runs as follows: under setting [30], 94.2%; under setting [31], 52.9%; under setting [32], 54.9%; under setting [33], 48.5%; under setting [34], 36.4%; under setting [35], 23.8%. In addition, the viability, T/C runs as follows: under setting [4], 64.2%; under setting [5], 50.4%; under setting [6], 51.2%; under setting [7], 51.1%; under setting [8], 35%; under setting [9], 23.8%. Besides, the viability, T/C by setting is: under setting [10], 57.8%; under setting [11], 52.9%; under setting [12], 46.9%; under setting [13], 45.6%; under setting [14], 35.8%; under setting [15], 27.9%. For the same molecule, the viability, T/C is, setting by setting: under setting [16], 63.8%; under setting [17], 59.8%; under setting [18], 49.2%; under setting [19], 43.9%; under setting [20], 33.9%; under setting [21], 29.4%.

On to `Cn1ncnc1[C@H]1c2n[nH]c(=O)c3cc(F)cc(c23)N[C@@H]1c1ccc(F)cc1`, for which the viability, T/C is 113% and 103% (compound 0.000316 µM); 89.9% and 84.2% (compound 0.001 µM); 96.3% and 81.5% (compound 0.00316 µM); 69.8% and 66% (compound 0.01 µM); 42.7% and 73.8% (compound 0.0316 µM); 65.2% and 30.4% (compound 0.1 µM). For the setting “curve of compound”, the IC50 was > 100 nM and 49.1 nM.

`CCN1CCN(Cc2ccc(Nc3ncc(F)c(-c4cc(F)c5nc(C)n(C(C)C)c5c4)n3)nc2)CC1`: for the setting “compound alone, run of 06/01/2021”, the IC50 was greater than 1000 nM.
